In patent publication US20080242646A1, “Split dose corticosteroid therapy” (priority 2007, published 2008):
Read-outs that look alike come from different tables or passages of the source.

Assays:
[1] = test system: subjects with active rheumatoid arthritis; settings: ITT (LOCF)
From the text: A visual analog scale (VAS) provides a measure of a one-dimensional quantity. A VAS generally utilizes a representation of distance, such as a picture of a line with hash marks drawn at regular distance intervals, e.g., ten 1-cm intervals. […] This procedure provides a simple and rapid approach to obtaining quantitative information about how the patient is experiencing pain. VAS scales can also be used, e.g., to measure fatigue.
(§1) We conducted a 14 week blinded, randomized study including a split dose corticosteroid therapy or placebo, with regular CRP and inflammatory cytokine measurements. The study population had active rheumatoid arthritis. The subject must otherwise have been in good general health.
(§2) Screening Visit • Day 1 (Baseline Visit)—Start of Run-In Period • Day 14 (±2 days)—End of Run-In Period/Start of Treatment Period • Day 42 (±2 days) • Day 70 (±2 days)—End of Treatment Period/Start of Withdrawal Period • Day 98 (±2 days)—End of Study
(§3) All eligible subjects received DMARD therapy in a stable dose. Subjects were evaluated for study eligibility at the Screening visit, which was conducted within 14 days before the first dose of study drug. The subject provided written informed consent to participate in the study before any Screening laboratory samples were collected or evaluations performed.
(§4) All subjects were given 3 mg prednisolone alone for 2 weeks (Run-In Period). Subjects were then randomized into treatment groups to additionally receive 10 mg paroxetine, 20 mg paroxetine or placebo tablets for 8 weeks (Combination Treatment Period). The powered study ended after these first 10 weeks. All subjects continued in an un-powered part of the study for an additional 4 weeks (Withdrawal Period). In this portion of the study, half of the subjects on 10 mg or 20 mg paroxetine plus 3 mg prednisolone stopped taking paroxetine, and instead took 3 mg prednisolone plus placebo, while the other half stopped taking prednisolone, and instead took either dose of paroxetine plus placebo. Similarly, half of the subjects on prednisolone plus placebo stopped the prednisolone, and instead took two placebo tablets, while the other half continued the regimen of 3 mg prednisolone plus placebo.

CRP = CRP measurements in the 14 week blinded randomized study; assay type: in vivo, human; settings: ITT (LOCF)
From the text: The study population had active rheumatoid arthritis.
The powered study ended after these first 10 weeks. […] A schematic of the study design is shown below.

[2] = test system: subjects with active rheumatoid arthritis; settings: ITT, missing = non-responder, subjects (% of arm)
From the text: ACR-20/50/70 refers to a composite improvement of 20%, 50% or 70% in swollen joint count, tender joint count, and 3 or more of the following 5 measures: patient's own global assessment of RA disease activity; physician's global assessment of disease activity; patient's own assessment of pain due to RA; acute-phase reactant (CRP); and patient's self-addressed disability (Health Assessment Questionnaire).
as §1, §2, §3, §4

[3] = cited from earlier work; for Equivalent dose, Equal to 1 mg prednisolone / Equivalent dose, Equal to 5 mg prednisolone: BNF guidelines
[4] = Day 14 (end of run-in, 3 mg prednisolone alone in all arms)

C[C@]12C=CC(=O)C=C1CC[C@@H]1[C@@H]2[C@@H](O)C[C@@]2(C)[C@H]1CC[C@]2(O)C(=O)CO [3 mg Prednisolone + Placebo, prednisolone]
Patient Pain Assessment (VAS) score % Change from baseline, Max [1, 4]: 106.7%
Patient Pain Assessment (VAS) score % Change from baseline, Mean (Std Dev) [1, 4]: −13.65 (38.137) %
Patient Pain Assessment (VAS) score % Change from baseline, Median [1, 4]: −11.11%
Patient Pain Assessment (VAS) score % Change from baseline, Min [1, 4]: −94.7%
Patient Pain Assessment (VAS) score Change from baseline, Max [1, 4]: 35.0
Patient Pain Assessment (VAS) score Change from baseline, Mean (Std Dev) [1, 4]: −7.73 (19.337)
Patient Pain Assessment (VAS) score Change from baseline, Median [1, 4]: −5.00
Patient Pain Assessment (VAS) score Change from baseline, Min [1, 4]: −81.0
Patient Pain Assessment (VAS) score Value, Max [1, 4]: 97.0
Patient Pain Assessment (VAS) score Value, Mean (Std Dev) [1, 4]: 45.58 (25.283)
Patient Pain Assessment (VAS) score Value, Median [1, 4]: 47.00
Patient Pain Assessment (VAS) score Value, Min [1, 4]: 2.0
Patient Pain Assessment (VAS) score % Change from baseline, Max ([1]; Day 42): 186.7%
Patient Pain Assessment (VAS) score % Change from baseline, Mean (Std Dev) ([1]; Day 42): −19.23 (47.955) %
Patient Pain Assessment (VAS) score % Change from baseline, Median ([1]; Day 42): −23.44%
Patient Pain Assessment (VAS) score % Change from baseline, Min ([1]; Day 42): −93.5%
Patient Pain Assessment (VAS) score Change from baseline, Max ([1]; Day 42): 56.0
Patient Pain Assessment (VAS) score Change from baseline, Mean (Std Dev) ([1]; Day 42): −10.57 (21.630)
Patient Pain Assessment (VAS) score Change from baseline, Median ([1]; Day 42): −9.00
Patient Pain Assessment (VAS) score Change from baseline, Min ([1]; Day 42): −64.0
Patient Pain Assessment (VAS) score Value, Max ([1]; Day 42): 97.0
Patient Pain Assessment (VAS) score Value, Mean (Std Dev) ([1]; Day 42): 42.74 (26.143)
Patient Pain Assessment (VAS) score Value, Median ([1]; Day 42): 37.00
Patient Pain Assessment (VAS) score Value, Min ([1]; Day 42): 2.0
Patient Pain Assessment (VAS) score % Change from baseline, Max ([1]; Day 70): 233.3%
Patient Pain Assessment (VAS) score % Change from baseline, Mean (Std Dev) ([1]; Day 70): −17.84 (57.121) %
Patient Pain Assessment (VAS) score % Change from baseline, Median ([1]; Day 70): −25.64%
Patient Pain Assessment (VAS) score % Change from baseline, Min ([1]; Day 70): −90.5%
Patient Pain Assessment (VAS) score Change from baseline, Max ([1]; Day 70): 49.0
Patient Pain Assessment (VAS) score Change from baseline, Mean (Std Dev) ([1]; Day 70): −12.28 (23.864)
Patient Pain Assessment (VAS) score Change from baseline, Median ([1]; Day 70): −10.00
Patient Pain Assessment (VAS) score Change from baseline, Min ([1]; Day 70): −69.0
Patient Pain Assessment (VAS) score Value, Max ([1]; Day 70): 97.0
Patient Pain Assessment (VAS) score Value, Mean (Std Dev) ([1]; Day 70): 41.04 (25.466)
Patient Pain Assessment (VAS) score Value, Median ([1]; Day 70): 39.00
Patient Pain Assessment (VAS) score Value, Min ([1]; Day 70): 2.0
CRP % Change from baseline, Max (CRP; [4]): 1700.0%
CRP % Change from baseline, Mean (Std Dev) (CRP; [4]): 7.11 (215.970) %
CRP % Change from baseline, Median (CRP; [4]): −32.26%
CRP % Change from baseline, Min (CRP; [4]): −95.8%
CRP Change from baseline, Max (CRP; [4]): 77.9
CRP Change from baseline, Mean (Std Dev) (CRP; [4]): −7.40 (20.149)
CRP Change from baseline, Median (CRP; [4]): −1.70
CRP Change from baseline, Min (CRP; [4]): −83.2
CRP Value, Max (CRP; [4]): 107.3
CRP Value, Mean (Std Dev) (CRP; [4]): 11.42 (17.413)
CRP Value, Median (CRP; [4]): 6.20
CRP Value, Min (CRP; [4]): 0.3
CRP % Change from baseline, Max (CRP; Day 42): 187.3%
CRP % Change from baseline, Mean (Std Dev) (CRP; Day 42): −17.67 (58.589) %
CRP % Change from baseline, Median (CRP; Day 42): −23.53%
CRP % Change from baseline, Min (CRP; Day 42): −92.5%
CRP Change from baseline, Max (CRP; Day 42): 21.5
CRP Change from baseline, Mean (Std Dev) (CRP; Day 42): −8.61 (18.009)
CRP Change from baseline, Median (CRP; Day 42): −1.00
CRP Change from baseline, Min (CRP; Day 42): −81.4
CRP Value, Max (CRP; Day 42): 70.6
CRP Value, Mean (Std Dev) (CRP; Day 42): 10.22 (12.443)
CRP Value, Median (CRP; Day 42): 5.40
CRP Value, Min (CRP; Day 42): 0.3
CRP % Change from baseline, Max (CRP; Day 70): 187.3%
CRP % Change from baseline, Mean (Std Dev) (CRP; Day 70): −13.66 (64.905) %
CRP % Change from baseline, Median (CRP; Day 70): −29.27%
CRP % Change from baseline, Min (CRP; Day 70): −92.8%
CRP Change from baseline, Max (CRP; Day 70): 15.5
CRP Change from baseline, Mean (Std Dev) (CRP; Day 70): −8.95 (18.996)
CRP Change from baseline, Median (CRP; Day 70): −1.20
CRP Change from baseline, Min (CRP; Day 70): −87.7
CRP Value, Max (CRP; Day 70): 64.6
CRP Value, Mean (Std Dev) (CRP; Day 70): 9.88 (11.956)
CRP Value, Median (CRP; Day 70): 5.70
CRP Value, Min (CRP; Day 70): 0.2
ACR20 response from baseline: No [2, 4]: 53 (77)
ACR20 response from baseline: Yes [2, 4]: 16 (23)
ACR50 response from baseline: No [2, 4]: 64 (93)
ACR50 response from baseline: Yes [2, 4]: 5 (7)
ACR70 response from baseline: No [2, 4]: 66 (96)
ACR70 response from baseline: Yes [2, 4]: 3 (4)
ACR20 response from baseline: No ([2]; Day 42): 44 (64)
ACR20 response from baseline: Yes ([2]; Day 42): 25 (36)
ACR50 response from baseline: No ([2]; Day 42): 60 (87)
ACR50 response from baseline: Yes ([2]; Day 42): 9 (13)
ACR70 response from baseline: No ([2]; Day 42): 67 (97)
ACR70 response from baseline: Yes ([2]; Day 42): 2 (3)
ACR20 response from baseline: No ([2]; Day 70): 39 (57)
ACR20 response from baseline: Yes ([2]; Day 70): 30 (43)
ACR50 response from baseline: No ([2]; Day 70): 55 (80)
ACR50 response from baseline: Yes ([2]; Day 70): 14 (20)
ACR70 response from baseline: No ([2]; Day 70): 65 (94)
ACR70 response from baseline: Yes ([2]; Day 70): 4 (6)

CC(=O)OCC(=O)[C@@]1(O)CC[C@H]2[C@@H]3CCC4=CC(=O)CC[C@]4(C)[C@H]3C(=O)C[C@@]21C [cortisone acetate]
Equivalent dose, Equal to 1 mg prednisolone [3]: 5 mg
Equivalent dose, Equal to 5 mg prednisolone [3]: 25 mg

CC(=O)OCC(=O)[C@@]12N=C(C)O[C@@H]1C[C@H]1[C@@H]3CCC4=CC(=O)C=C[C@]4(C)[C@H]3[C@@H](O)C[C@@]12C [deflazacort]
Equivalent dose, Equal to 1 mg prednisolone [3]: 1.2 mg
Equivalent dose, Equal to 5 mg prednisolone [3]: 6 mg

C[C@]12CCC(=O)C=C1CC[C@@H]1[C@@H]2[C@@H](O)C[C@@]2(C)[C@H]1CC[C@]2(O)C(=O)CO [hydrocortisone]
Equivalent dose, Equal to 1 mg prednisolone [3]: 4 mg
Equivalent dose, Equal to 5 mg prednisolone [3]: 20 mg

C[C@]12C=CC(=O)C=C1CC[C@H]1[C@@H]3C[C@@H](O)[C@](O)(C(=O)CO)[C@@]3(C)C[C@H](O)[C@@]12F [triamcinolone]
Equivalent dose, Equal to 1 mg prednisolone [3]: 0.8 mg
Equivalent dose, Equal to 5 mg prednisolone [3]: 4 mg
Broadly similar dose from clinical dosing equivalence ([3]; nasal administration, BNF 37 Mar. 1999): 110 µg

methyl prednisone
Equivalent dose, Equal to 1 mg prednisolone [3]: 0.8 mg
Equivalent dose, Equal to 5 mg prednisolone [3]: 4 mg
